{"source": "patent US20160022811A1", "about": "(Teva Pharmaceutical Industries Ltd., priority 2013, published 2016)", "origin": "cited, not measured here", "tested_on": "relapsing-remitting MS (RRMS)", "conditions": "registration trials, comparison with placebo", "data": [{"substance": "L-glutamic acid polymer with L-alanine, L-lysine, L-tyrosine, acetate (salt) [glatiramer acetate]", "values": [{"measurement": "reduction of relapse rate", "result": "about one third"}]}]}
